Test results reported in ChEMBL document CHEMBL3507680, “University of Dundee, Gates Library screen for HepG2 cell viability”.

Test: Human HepG2 cell viability assay in 384 well format
Format: toxicity, cell-based
Parameters: dose 125 nL, time 70.5 hour; concentration not given beside the values
Conditions: HepG2 cells, read-out: Inhibition

COc1ccccc1C(C)(C)NC(=O)c1cc(NC(C)=O)ccc1F
cytotoxicity at 70.5 h: -6.53%

CCc1cc(=O)[nH]c(-c2ccc(NCCC(C)O)nc2)n1 (stereo unspecified)
cytotoxicity at 70.5 h: -5.98%

Cc1nnc(N2CCc3cnc(C(C)C)nc3C2)c(C#N)c1C
cytotoxicity at 70.5 h: 1.1%

CCOC(=O)C1(O)CCN(C(=O)Nc2cccc(F)c2)CC1
cytotoxicity at 70.5 h: 4.4%

Cc1occc1CNc1ncccc1S(N)(=O)=O
cytotoxicity at 70.5 h: -3.76%

CC(C)c1nnc(CN2CC(n3cccn3)Cc3ccccc32)o1 (stereo unspecified)
cytotoxicity at 70.5 h: -4.11%

CCn1cnnc1CNS(=O)(=O)N1CCCC1c1ccc(C)o1 (stereo unspecified)
cytotoxicity at 70.5 h: -4.31%

O=C(NCC(=O)N1CCN(c2ccccc2)CC1)c1sccc1C1CC1
cytotoxicity at 70.5 h: -2.46%

Cn1cc(C2CCCN2C(=O)Cc2coc(-c3ccccc3)n2)cn1 (stereo unspecified)
cytotoxicity at 70.5 h: -7.27%

O=C(c1ccccc1F)N1CCN(CCCn2cncn2)CC1
cytotoxicity at 70.5 h: -5.46%

Cc1cc(NC(=O)N2CCCC(CO)C2)nn1-c1ccccc1Cl (stereo unspecified)
cytotoxicity at 70.5 h: -1.91%

Cc1ccc(-c2cc(CNCCn3cc(C)cn3)on2)cc1
cytotoxicity at 70.5 h: -1.34%

Cc1ccoc1C(=O)NC(CC(C)C)C(=O)N1CCC(CO)CC1 (stereo unspecified)
cytotoxicity at 70.5 h: 27.4%

CNC(=O)CN1CCN(C(=O)Nc2ccc(C)s2)CC1
cytotoxicity at 70.5 h: -1.2%

Cn1c(NCCC(=O)N2CCCC2)c(C#N)c(=O)n(C)c1=O
cytotoxicity at 70.5 h: 3.58%

Cn1c(NCCN2CCCCCC2)c(C#N)c(=O)n(C)c1=O
cytotoxicity at 70.5 h: -7.25%

CCNc1c(C#N)c(=O)n(C)c(=O)n1C
cytotoxicity at 70.5 h: -8.97%

CC(C)NC(=O)C(C(C)C)n1cnc2cc(F)c(F)cc21 (stereo unspecified)
cytotoxicity at 70.5 h: -7.62%

CC(=O)N1CCN(CCNc2snc(Cl)c2C#N)CC1
cytotoxicity at 70.5 h: -5.16%

CC(=O)NC1(C(=O)N2CCCN(c3cccnn3)CC2)CCCCC1
cytotoxicity at 70.5 h: -5.29%

CC(Nc1ccc(CN2CCCC2=O)cc1)c1ccc(C#N)cc1 (stereo unspecified)
cytotoxicity at 70.5 h: -5.25%

CCC(=O)NCC(=O)Nc1ncc(I)cc1C
cytotoxicity at 70.5 h: 0.64%

Cc1ccc(NC(=O)N2CCN(C(=O)CC3CCCC3)CC2)s1
cytotoxicity at 70.5 h: -10.2%

Cc1noc(C)c1NS(=O)(=O)c1cc(Cl)c(Cl)c(C(=O)O)c1
cytotoxicity at 70.5 h: -9.2%

O=C(N1CCc2ccccc2CC1)C1(O)Cc2ccccc2C1
cytotoxicity at 70.5 h: -2.64%

CC(C)C(C(=O)NCC1CC1)n1cnc2cc(F)c(F)cc21 (stereo unspecified)
cytotoxicity at 70.5 h: -1.42%

CC(C)C(C(=O)NC1CCOCC1)n1cnc2cc(F)c(F)cc21 (stereo unspecified)
cytotoxicity at 70.5 h: 1.78%

Clc1cccnc1N1CCC(NCc2cccc3cn[nH]c23)C1 (stereo unspecified)
cytotoxicity at 70.5 h: -4.87%

O=C(CNC(=O)C1CCCC1)NCc1cnn(-c2ccc(F)cc2F)c1
cytotoxicity at 70.5 h: -1.74%

CCOC(C)C(=O)Nc1ccc2c(ccn2CC)c1 (stereo unspecified)
cytotoxicity at 70.5 h: 1.36%

O=C(NCc1cnn(-c2ccc(F)cc2F)c1)C1CCCO1 (stereo unspecified)
cytotoxicity at 70.5 h: -1.57%

Fc1ccc(C2(NCc3noc(C4CC4)n3)CCC2)cc1
cytotoxicity at 70.5 h: 8.34%

CC(NCc1ccccc1CN1CCCC1=O)c1ccc(C#N)cc1 (stereo unspecified)
cytotoxicity at 70.5 h: 4.5%

CN1CCC(N2CCOC3(CCCC3)C2)C1=O (stereo unspecified)
cytotoxicity at 70.5 h: 5.41%

O=C(NCCCN1CCC(OC2CCCCC2)CC1)C1CCCC1
cytotoxicity at 70.5 h: -0.377%

CNC(=O)CSC(C)c1ccc(Br)cc1 (stereo unspecified)
cytotoxicity at 70.5 h: 2.63%

CN(C)C(=O)CS(=O)(=O)Cc1ccn(-c2cccc(F)c2)n1
cytotoxicity at 70.5 h: -3.31%

CN(C1CCCCC1)S(=O)(=O)NC1CCN(c2ncccn2)CC1
cytotoxicity at 70.5 h: -7.52%

CC1CN(c2ncnc3cccc(F)c23)CCO1 (stereo unspecified)
cytotoxicity at 70.5 h: 10.6%

O=C1CC(N(C(=O)c2ccc(-n3cccc3)cc2)C2CC2)C(=O)N1 (stereo unspecified)
cytotoxicity at 70.5 h: -4.68%

CC(C)(C(=O)NCCCC(N)=O)c1cccc(Br)c1
cytotoxicity at 70.5 h: -8.19%

O=C(Nc1cccc(F)c1)C1CCN(Cc2noc(C3CC3)n2)CC1
cytotoxicity at 70.5 h: -13.9%

O=C(Nc1cccc(F)c1)N1CCN(Cc2noc(C3CC3)n2)CC1
cytotoxicity at 70.5 h: -13.8%

Cc1noc(C)c1CC(=O)N1CCCC(c2noc(C(C)C)n2)C1 (stereo unspecified)
cytotoxicity at 70.5 h: -9.31%

CCn1nc(C)c(CNC(=O)NCC(C)(O)c2ccc(C)o2)c1C (stereo unspecified)
cytotoxicity at 70.5 h: -13.6%

CC1COc2ccccc2N1C(=O)c1ccnc(-n2cncn2)c1 (stereo unspecified)
cytotoxicity at 70.5 h: 9.86%
